Results as given in patent US20240317777A1, “NOVEL MACROCYCLIC AMINOPYRAZOLE COMPOUNDS AS CDK2 INHIBITORS” (Accutar Biotechnology Inc., priority 2023, published 2024).
Like-named read-outs stand apart in the source and are kept apart here. Values belong to the compound of their own block, whether it stands above or below them.

Assays:
[1] = system: Phospho-Rb (Ser807/811) in OVCAR3 cells; assay: Phospho-Rb expression inhibition in OVCAR3 cells quantified by In Cell Western; assay type: cell-based; details: Homo sapiens, OVCAR-3, 24 hours, read-out: OVCAR-3 pRb IC50
Summary of the method: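 In-cell western: after 24 h compound exposure at 37° C, fixed OVCAR3 cells co-stained for pRb Ser807/811 (800 nm channel) and total Rb (680 nm channel), imaged by LI-COR Odyssey.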

CDK2-CYCLIN E1 = CDK2-CYCLIN E1 (Homo sapiens, UniProt P24941); assay: CDK protein kinase inhibition by ADP-Glo assay, CDK2-CYCLIN E1; assay type: biochemical; details: read-out: CDK2-CYCLINE, IC50
Summary of the method: (§1)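 Kinase/cyclin + peptide substrate + cpd + ATP (1000 μM)/MgCl2 (5 mM), HEPES pH 7.5, 22° C; quench, ADP-Glo reagent 45 min RT, detection reagent 10 min, luminescence.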

[2] = system: CCNE1-amplified OVCAR3 cells; assay: Cell growth inhibition of CCNE1-amplified OVCAR3 cells (CellTiter-Glo); assay type: cell-based; details: Homo sapiens, OVCAR-3, 144 h, 6 days
Summary of the method: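 Growth read-out was CellTiter-Glo luminescence, taken after 10 min at room temperature at the end of a 6-day compound exposure at 37 °C. Compounds were diluted from DMSO stocks across various concentrations.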

CDK4-CYCLIN D1 = CDK4-CYCLIN D1 (Homo sapiens, UniProt P11802); assay: CDK protein kinase inhibition by ADP-Glo assay, CDK4-CYCLIN D1; assay type: biochemical; details: for IC50: read-out: CDK4-CYCLIND1, IC50; for CDK2 Fold selectivity, CDK4: CDK2 versus CDK4; for CDK2 Fold selectivity against CDK4: fold selectivity for CDK2 over CDK4, recombinant CDK kinases
Summary of the method: as §1

CCNE1-normal SKOV3 cells = assay: Cell growth inhibition of CCNE1-normal SKOV3 cells (CellTiter-Glo); assay type: cell-based; details: Homo sapiens, SK-OV-3, 144 h, 6 days
Summary of the method: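 Growth was measured by CellTiter-Glo luminescence after 6 days' compound exposure at 37 °C. Cells were plated one day before dosing at 1000 per well in medium with 10% FBS, and compounds were diluted from DMSO stocks.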

CDK9-CYCLIN T1 = CDK9-CYCLIN T1 (Homo sapiens, UniProt P50750); assay: CDK protein kinase inhibition by ADP-Glo assay, CDK9-CYCLIN T1; assay type: biochemical; details: for CDK2 Fold selectivity, CDK9: CDK2 versus CDK9; for CDK2 Fold selectivity against CDK9: fold selectivity for CDK2 over CDK9, recombinant CDK kinases
Summary of the method: as §1

CDK1-CYCLIN B = CDK1-CYCLIN B (Homo sapiens, UniProt P06493); assay: CDK protein kinase inhibition by ADP-Glo assay, CDK1-CYCLIN B; assay type: biochemical; details: for IC50: read-out: CDK1-CYCLINB, IC50; for CDK2 Fold selectivity, CDK1: CDK2 versus CDK1; for CDK2 Fold selectivity against CDK1: fold selectivity for CDK2 over CDK1, recombinant CDK kinases
Summary of the method: as §1

CDK6-CYCLIN D3 = CDK6-CYCLIN D3 (Homo sapiens, UniProt Q00534); assay: CDK protein kinase inhibition by ADP-Glo assay, CDK6-CYCLIN D3; assay type: biochemical; details: for IC50: read-out: CDK6-CYCLIND3, IC50; for CDK2 Fold selectivity, CDK6: CDK2 versus CDK6; for CDK2 Fold selectivity against CDK6: fold selectivity for CDK2 over CDK6, recombinant CDK kinases
Summary of the method: as §1

[3] = ADP-Glo, 1000 μM ATP, Table 25, read-out: CDK9-CYCLINT1, IC50
[4] = Table 35, recombinant CDK kinase

Sequence of CDK9-CYCLIN T1 (P50750 whole entry): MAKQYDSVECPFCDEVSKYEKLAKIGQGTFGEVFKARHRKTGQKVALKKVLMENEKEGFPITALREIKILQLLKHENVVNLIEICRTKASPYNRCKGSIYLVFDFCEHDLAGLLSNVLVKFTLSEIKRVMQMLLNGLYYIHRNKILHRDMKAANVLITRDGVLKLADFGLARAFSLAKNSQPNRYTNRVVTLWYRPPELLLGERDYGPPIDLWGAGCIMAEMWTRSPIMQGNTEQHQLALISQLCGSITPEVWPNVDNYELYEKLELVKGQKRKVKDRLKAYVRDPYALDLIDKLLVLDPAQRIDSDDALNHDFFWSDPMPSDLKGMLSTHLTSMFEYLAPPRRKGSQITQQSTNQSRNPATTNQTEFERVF
Sequence of CDK9-CYCLIN T1 (O60563 whole entry partner): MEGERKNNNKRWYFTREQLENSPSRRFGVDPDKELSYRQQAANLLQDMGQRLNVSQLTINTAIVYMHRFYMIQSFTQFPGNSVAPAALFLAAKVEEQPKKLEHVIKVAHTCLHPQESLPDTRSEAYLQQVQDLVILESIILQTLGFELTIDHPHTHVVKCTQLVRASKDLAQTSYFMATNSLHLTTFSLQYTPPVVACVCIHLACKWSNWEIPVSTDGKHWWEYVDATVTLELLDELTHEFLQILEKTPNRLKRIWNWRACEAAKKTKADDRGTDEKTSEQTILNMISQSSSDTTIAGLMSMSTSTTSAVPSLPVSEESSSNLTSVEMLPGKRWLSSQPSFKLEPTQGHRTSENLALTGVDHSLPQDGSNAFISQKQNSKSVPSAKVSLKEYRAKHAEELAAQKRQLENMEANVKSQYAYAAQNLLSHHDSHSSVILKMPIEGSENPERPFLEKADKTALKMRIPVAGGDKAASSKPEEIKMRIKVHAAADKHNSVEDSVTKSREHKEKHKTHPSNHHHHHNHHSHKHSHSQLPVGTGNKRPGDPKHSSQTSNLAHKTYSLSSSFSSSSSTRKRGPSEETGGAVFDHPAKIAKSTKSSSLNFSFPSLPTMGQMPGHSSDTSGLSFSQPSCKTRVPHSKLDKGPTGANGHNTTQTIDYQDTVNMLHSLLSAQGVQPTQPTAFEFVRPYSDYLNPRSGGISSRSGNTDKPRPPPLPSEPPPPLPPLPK
Sequence of CDK6-CYCLIN D3 (Q00534 whole entry): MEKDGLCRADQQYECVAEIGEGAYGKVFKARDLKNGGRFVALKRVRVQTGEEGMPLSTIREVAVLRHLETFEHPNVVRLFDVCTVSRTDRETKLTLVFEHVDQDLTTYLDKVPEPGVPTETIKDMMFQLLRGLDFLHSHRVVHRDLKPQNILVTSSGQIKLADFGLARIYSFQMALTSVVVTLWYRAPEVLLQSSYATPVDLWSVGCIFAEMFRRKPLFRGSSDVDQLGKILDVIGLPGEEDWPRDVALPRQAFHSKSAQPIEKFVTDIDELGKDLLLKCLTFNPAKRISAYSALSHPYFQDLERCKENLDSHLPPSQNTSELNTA
Sequence of CDK6-CYCLIN D3 (P30281 whole entry partner): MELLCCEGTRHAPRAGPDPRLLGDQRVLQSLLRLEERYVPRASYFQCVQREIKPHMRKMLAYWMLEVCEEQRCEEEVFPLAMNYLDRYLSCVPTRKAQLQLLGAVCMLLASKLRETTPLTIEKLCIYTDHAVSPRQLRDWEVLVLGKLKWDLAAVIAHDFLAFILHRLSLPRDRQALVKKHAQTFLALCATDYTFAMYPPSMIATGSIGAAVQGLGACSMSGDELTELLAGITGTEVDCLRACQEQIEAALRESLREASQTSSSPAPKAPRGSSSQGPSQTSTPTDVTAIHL
Sequence of CDK1-CYCLIN B (P06493 whole entry): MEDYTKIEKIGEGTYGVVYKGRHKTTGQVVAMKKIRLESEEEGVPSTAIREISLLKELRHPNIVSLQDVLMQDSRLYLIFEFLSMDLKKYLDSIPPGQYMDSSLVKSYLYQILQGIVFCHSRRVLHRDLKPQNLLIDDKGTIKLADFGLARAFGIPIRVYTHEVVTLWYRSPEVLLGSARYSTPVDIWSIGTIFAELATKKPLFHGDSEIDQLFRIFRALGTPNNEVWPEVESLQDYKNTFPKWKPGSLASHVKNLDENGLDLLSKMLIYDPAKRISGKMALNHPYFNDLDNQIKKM
Sequence of CDK1-CYCLIN B (P14635 whole entry partner): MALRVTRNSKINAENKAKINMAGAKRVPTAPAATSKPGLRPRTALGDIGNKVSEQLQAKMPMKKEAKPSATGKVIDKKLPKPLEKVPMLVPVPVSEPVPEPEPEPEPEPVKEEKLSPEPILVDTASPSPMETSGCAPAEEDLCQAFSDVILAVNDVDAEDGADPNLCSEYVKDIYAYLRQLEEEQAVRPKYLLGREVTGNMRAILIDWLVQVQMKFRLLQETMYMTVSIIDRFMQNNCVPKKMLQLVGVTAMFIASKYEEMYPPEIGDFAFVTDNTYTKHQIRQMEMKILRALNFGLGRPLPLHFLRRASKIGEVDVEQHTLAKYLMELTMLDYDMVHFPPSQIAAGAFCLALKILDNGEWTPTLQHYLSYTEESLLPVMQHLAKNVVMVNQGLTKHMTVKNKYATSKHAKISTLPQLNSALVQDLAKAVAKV
Sequence of CDK4-CYCLIN D1 (P11802 whole entry): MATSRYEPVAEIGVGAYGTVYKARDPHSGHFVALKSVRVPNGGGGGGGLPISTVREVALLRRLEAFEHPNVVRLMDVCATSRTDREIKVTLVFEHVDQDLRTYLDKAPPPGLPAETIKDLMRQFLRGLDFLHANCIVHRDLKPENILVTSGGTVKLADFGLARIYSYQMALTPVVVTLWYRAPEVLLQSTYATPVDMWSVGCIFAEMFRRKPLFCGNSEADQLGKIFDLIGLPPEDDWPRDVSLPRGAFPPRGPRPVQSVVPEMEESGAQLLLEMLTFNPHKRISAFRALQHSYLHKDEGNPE
Sequence of CDK4-CYCLIN D1 (P24385 whole entry partner): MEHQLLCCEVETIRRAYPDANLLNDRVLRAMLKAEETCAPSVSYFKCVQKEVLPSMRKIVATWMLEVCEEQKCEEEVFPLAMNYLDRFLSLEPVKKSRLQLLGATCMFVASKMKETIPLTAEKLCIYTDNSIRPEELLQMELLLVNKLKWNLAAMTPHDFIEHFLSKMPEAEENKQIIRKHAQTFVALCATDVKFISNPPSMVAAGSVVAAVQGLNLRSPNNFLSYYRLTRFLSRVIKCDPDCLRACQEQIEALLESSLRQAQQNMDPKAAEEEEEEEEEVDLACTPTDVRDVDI

SMILES: C[C@H]1CCCC(F)(F)c2cc(ccn2)Nc2cc(n[nH]2)[C@H]2CC[C@H](C2)OC(=O)N1 [Compound 166, (1^1S,1^3R,9S,Z)-5,5-difluoro-9-methyl-2^1H-12-oxa-3,10-diaza-4(4,2)-pyridina-2(3,5)-pyrazola-1(1,3)-cyclopentanacyclododecaphan-11-one]
- IC50 [1]: 2 to 10 nM
- IC50 (CDK2-CYCLIN E1; ADP-Glo, 1000 μM ATP, Table 25): ≤ 10 nM
- IC50 (CDK2-CYCLIN E1; ADP-Glo, 1000 μM ATP, Table 31): ≤ 10 nM
- IC50 [2]: 10 to 50 nM
- IC50 (CDK4-CYCLIN D1; ADP-Glo, 1000 μM ATP, Table 25): 50 to 100 nM
- IC50 (CDK4-CYCLIN D1; ADP-Glo, 1000 μM ATP, Table 31): 100 to 500 nM
- CDK2 Fold selectivity, CDK4 (CDK4-CYCLIN D1; Table 26): C (C, >50 and ≤100)
- CDK2 Fold selectivity, CDK4 (CDK4-CYCLIN D1; Table 32): D (D, >20 and ≤50)
- IC50 (CCNE1-normal SKOV3 cells): 250 to 1250 nM
- IC50 (CDK9-CYCLIN T1; [3]): 10 to 50 nM
- IC50 (CDK9-CYCLIN T1; ADP-Glo, 1000 μM ATP, Table 31, read-out: CDK9-CYCLINT1, IC50): 10 to 50 nM
- CDK2 Fold selectivity, CDK9 (CDK9-CYCLIN T1; Table 26): D (D, >20 and ≤50)
- CDK2 Fold selectivity, CDK9 (CDK9-CYCLIN T1; Table 32): E (E, <20)
- IC50 (CDK1-CYCLIN B; ADP-Glo, 1000 μM ATP, Table 25): 10 to 50 nM
- IC50 (CDK1-CYCLIN B; ADP-Glo, 1000 μM ATP, Table 31): 10 to 50 nM
- CDK2 Fold selectivity, CDK1 (CDK1-CYCLIN B; Table 26): E (E, <20)
- CDK2 Fold selectivity, CDK1 (CDK1-CYCLIN B; Table 32): E (E, <20)
- IC50 (CDK6-CYCLIN D3; ADP-Glo, 1000 μM ATP, Table 25): 10 to 50 nM
- IC50 (CDK6-CYCLIN D3; ADP-Glo, 1000 μM ATP, Table 31): 100 to 500 nM
- CDK2 Fold selectivity, CDK6 (CDK6-CYCLIN D3; Table 26): D (D, >20 and ≤50)
- CDK2 Fold selectivity, CDK6 (CDK6-CYCLIN D3; Table 32): D (D, >20 and ≤50)

SMILES: O=C1NC2CC(/C=C/c3cc(ccn3)Nc3cc(n[nH]3)[C@H]3CC[C@H](C3)O1)C2 [Compound 172, (1^1S,1^3R,2^4Z,7^1R,7^3S,5E)-2^1H-10-oxa-3,8-diaza-4(4,2)-pyridina-2(3,5)-pyrazola-1(1,3)-cyclopentana-7(1,3)-cyclobutanacyclodecaphan-5-en-9-one]
- IC50 [1]: ≤ 2 nM
- IC50 (CDK2-CYCLIN E1; ADP-Glo, 1000 μM ATP, Table 25): ≤ 10 nM
- IC50 [2]: 2 to 10 nM
- IC50 (CDK4-CYCLIN D1; ADP-Glo, 1000 μM ATP, Table 25): ≤ 10 nM
- CDK2 Fold selectivity, CDK4 (CDK4-CYCLIN D1; Table 26): E (E, <20)
- IC50 (CCNE1-normal SKOV3 cells): 10 to 50 nM
- IC50 (CDK9-CYCLIN T1; [3]): ≤ 10 nM
- CDK2 Fold selectivity, CDK9 (CDK9-CYCLIN T1; Table 26): E (E, <20)
- IC50 (CDK1-CYCLIN B; ADP-Glo, 1000 μM ATP, Table 25): ≤ 10 nM
- CDK2 Fold selectivity, CDK1 (CDK1-CYCLIN B; Table 26): E (E, <20)
- IC50 (CDK6-CYCLIN D3; ADP-Glo, 1000 μM ATP, Table 25): 10 to 50 nM
- CDK2 Fold selectivity, CDK6 (CDK6-CYCLIN D3; Table 26): E (E, <20)

SMILES: [2H]C1([2H])CC[C@H](C)NC(=O)O[C@@H]2CC[C@@H](C2)c2cc([nH]n2)Nc2ccnc(c2)O1 [Compound 173, (1^1S,1^3R,9S,Z)-9-methyl-2^1H-5,12-dioxa-3,10-diaza-4(4,2)-pyridina-2(3,5)-pyrazola-1(1,3)-cyclopentanacyclododecaphan-11-one-6,6-d2]
- IC50 [1]: 10 to 50 nM
- IC50 (CDK2-CYCLIN E1; ADP-Glo, 1000 μM ATP, Table 27): 10 to 50 nM
- IC50 [2]: 50 to 250 nM
- IC50 (CDK4-CYCLIN D1; ADP-Glo, 1000 μM ATP, Table 27): 100 to 500 nM
- CDK2 Fold selectivity, CDK4 (CDK4-CYCLIN D1; Table 28): D (D, >20 and ≤50)
- IC50 (CCNE1-normal SKOV3 cells): > 1250 nM
- IC50 (CDK9-CYCLIN T1; ADP-Glo, 1000 μM ATP, Table 27, read-out: CDK9-CYCLINT1 IC50): > 500 nM
- CDK2 Fold selectivity, CDK9 (CDK9-CYCLIN T1; Table 28): D (D, >20 and ≤50)
- IC50 (CDK1-CYCLIN B; ADP-Glo, 1000 μM ATP, Table 27): 100 to 500 nM
- CDK2 Fold selectivity, CDK1 (CDK1-CYCLIN B; Table 28): E (E, <20)
- IC50 (CDK6-CYCLIN D3; ADP-Glo, 1000 μM ATP, Table 27): > 500 nM
- CDK2 Fold selectivity, CDK6 (CDK6-CYCLIN D3; Table 28): D (D, >20 and ≤50)

Continued, in another order:

- IC50 [1]: 10 to 50 nM
- IC50 (CDK2-CYCLIN E1; ADP-Glo, 1000 μM ATP, Table 29): ≤ 10 nM
- IC50 [2]: 10 to 50 nM
- IC50 (CDK4-CYCLIN D1; ADP-Glo, 1000 μM ATP, Table 29): > 500 nM
- CDK2 Fold selectivity, CDK4 (CDK4-CYCLIN D1; Table 30): C (C, >50 and ≤100)
- IC50 (CDK9-CYCLIN T1; ADP-Glo, 1000 μM ATP, Table 29, read-out: CDK9-CYCLINT1, IC50): 100 to 500 nM
- CDK2 Fold selectivity, CDK9 (CDK9-CYCLIN T1; Table 30): D (D, >20 and ≤50)
- IC50 (CDK1-CYCLIN B; ADP-Glo, 1000 μM ATP, Table 29): 100 to 500 nM
- CDK2 Fold selectivity, CDK1 (CDK1-CYCLIN B; Table 30): D (D, >20 and ≤50)
- IC50 (CDK6-CYCLIN D3; ADP-Glo, 1000 μM ATP, Table 29): > 500 nM
- CDK2 Fold selectivity, CDK6 (CDK6-CYCLIN D3; Table 30): C (C, >50 and ≤100)
SMILES: C[C@@H]1NC(=O)O[C@@H]2CC[C@@H](C2)c2cc([nH]n2)Nc2ccnc(c2)OCCC1(F)F [Compound 181, (1^1S,1^3R,9S,Z)-8,8-difluoro-9-methyl-2^1H-5,12-dioxa-3,10-diaza-4(4,2)-pyridina-2(3,5)-pyrazola-1(1,3)-cyclopentanacyclododecaphan-11-one]
- IC50 (CCNE1-normal SKOV3 cells): 250 to 1250 nM

- IC50 [1]: 10 to 50 nM
- IC50 (CDK2-CYCLIN E1; ADP-Glo, 1000 μM ATP, Table 33): 10 to 50 nM
- IC50 [2]: 50 to 250 nM
- IC50 (CDK4-CYCLIN D1; ADP-Glo, 1000 μM ATP, Table 33): > 500 nM
- CDK2 Fold selectivity against CDK4 (CDK4-CYCLIN D1; Table 34): C (C, >50 and ≤100)
- IC50 (CDK9-CYCLIN T1; ADP-Glo, 1000 μM ATP, Table 33, read-out: CDK9-CYCLINT1, IC50): > 500 nM
- CDK2 Fold selectivity against CDK9 (CDK9-CYCLIN T1; Table 34): B (B, >100 and ≤500)
- IC50 (CDK1-CYCLIN B; ADP-Glo, 1000 μM ATP, Table 33): > 500 nM
- CDK2 Fold selectivity against CDK1 (CDK1-CYCLIN B; Table 34): D (D, >20 and ≤50)
- IC50 (CDK6-CYCLIN D3; ADP-Glo, 1000 μM ATP, Table 33): > 500 nM
- CDK2 Fold selectivity against CDK6 (CDK6-CYCLIN D3; Table 34): C (C, >50 and ≤100)
SMILES: C[C@H]1CCCOc2cc(ccn2)Nc2[nH]nc(c2F)[C@H]2CC[C@H](C2)OC(=O)N1 [Compound 183, (1^1S,1^3R,9S,E)-2^4-fluoro-9-methyl-2^1H-5,12-dioxa-3,10-diaza-4(4,2)-pyridina-2(3,5)-pyrazola-1(1,3)-cyclopentanacyclododecaphan-11-one]
- IC50 (CCNE1-normal SKOV3 cells): > 1250 nM

- IC50 [1]: 2 to 10 nM
- IC50 (CDK2-CYCLIN E1; [4]): ≤ 10 nM
- IC50 [2]: 10 to 50 nM
- IC50 (CDK4-CYCLIN D1; [4]): 100 to 500 nM
- CDK2 Fold selectivity against CDK4 (CDK4-CYCLIN D1; Table 36): C (C, >50 and ≤100)
- IC50 (CDK9-CYCLIN T1; Table 35, recombinant CDK kinase, read-out: CDK9-CYCLINT1, IC50): 100 to 500 nM
- CDK2 Fold selectivity against CDK9 (CDK9-CYCLIN T1; Table 36): C (C, >50 and ≤100)
- IC50 (CDK1-CYCLIN B; [4]): 50 to 100 nM
- CDK2 Fold selectivity against CDK1 (CDK1-CYCLIN B; Table 36): E (E, <20)
- IC50 (CDK6-CYCLIN D3; [4]): 100 to 500 nM
- CDK2 Fold selectivity against CDK6 (CDK6-CYCLIN D3; Table 36): C (C, >50 and ≤100)
SMILES: C[C@H]1CC(F)(F)COc2cc(ccn2)Nc2cc(n[nH]2)[C@H]2CC[C@H](C2)OC(=O)N1 [Compound 223, (1^1S,1^3R,9S,Z)-7,7-difluoro-9-methyl-2^1H-5,12-dioxa-3,10-diaza-4(4,2)-pyridina-2(3,5)-pyrazola-1(1,3)-cyclopentanacyclododecaphan-11-one]
- IC50 (CCNE1-normal SKOV3 cells): 250 to 1250 nM
